Test results from patent US8153809B2, “Dihydropyridone ureas as P2X7 modulators” (Roche Palo Alto LLC, priority 2008, dated 2012).

biological target: T1, P2X7 (UniProt Q99572); assay: pIC50 values for P2X7 (Table 1); type: cell-based
T1 sequence (Q99572 1-595): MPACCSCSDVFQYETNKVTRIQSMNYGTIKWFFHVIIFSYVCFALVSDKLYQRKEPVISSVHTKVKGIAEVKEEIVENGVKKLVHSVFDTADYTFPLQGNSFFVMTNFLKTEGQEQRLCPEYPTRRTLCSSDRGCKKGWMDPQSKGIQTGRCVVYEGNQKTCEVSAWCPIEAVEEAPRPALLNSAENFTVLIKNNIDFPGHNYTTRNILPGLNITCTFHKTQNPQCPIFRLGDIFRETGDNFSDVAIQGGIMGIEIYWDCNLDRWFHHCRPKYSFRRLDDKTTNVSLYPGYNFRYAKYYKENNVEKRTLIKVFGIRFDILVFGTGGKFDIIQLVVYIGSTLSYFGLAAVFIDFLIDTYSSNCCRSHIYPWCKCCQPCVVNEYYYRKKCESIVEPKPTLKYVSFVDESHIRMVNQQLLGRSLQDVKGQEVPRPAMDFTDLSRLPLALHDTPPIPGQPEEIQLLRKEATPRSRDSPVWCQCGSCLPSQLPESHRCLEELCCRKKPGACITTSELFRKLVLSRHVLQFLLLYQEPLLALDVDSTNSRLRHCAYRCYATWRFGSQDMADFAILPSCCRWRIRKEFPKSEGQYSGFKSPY
Method in brief: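 Fluo-3-loaded 1321N1 cells expressing human P2X7 or HEK293 cells expressing rat P2X7, preincubated 20 min at room temperature with antagonist in HBSS/Hepes/probenecid buffer with 2 mM CaCl2. BzATP agonist at 100 μM final (human) or 5 μM final (rat); fluorescence read 5 min, peak normalized to 5 μM ionomycin response.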

SMILES	pIC50
COc1cccc(NC(=O)N2C=CC(=O)CC2c2ccc(F)cc2)c1OC (centres unmarked) [Compound 110, 2-(4-Fluoro-phenyl)-4-oxo-3,4-dihydro-2H-pyridine-1-carboxylic acid (2,3-dimethoxy-phenyl)-amide]	6.89
Cc1cc(F)c(OCCO)cc1NC(=O)N1C=CC(=O)C[C@H]1c1ccc(F)cc1 [Compound 111, (S)-2-(4-Fluoro-phenyl)-4-oxo-3,4-dihydro-2H-pyridine-1-carboxylic acid [4-fluoro-5-(2-hydroxy-ethoxy)-2-methyl-phenyl]-amide]	8.12
O=C1C=CN(C(=O)Nc2cc3[nH]c(=O)[nH]c3cc2Br)C(c2ccc(F)cc2)C1 (centres unmarked) [Compound 112, 2-(4-Fluoro-phenyl)-4-oxo-3,4-dihydro-2H-pyridine-1-carboxylic acid (6-bromo-2-oxo-2,3-dihydro-1H-benzoimidazol-5-yl)-amide]	5.93
Cc1nc2cc(NC(=O)N3C=CC(=O)CC3c3ccc(F)cc3)ccc2s1 (centres unmarked) [Compound 113, 2-(4-Fluoro-phenyl)-4-oxo-3,4-dihydro-2H-pyridine-1-carboxylic acid (2-methyl-benzothiazol-5-yl)-amide]	5.505
Cc1cc(Cl)c(OCCCO)cc1NC(=O)N1C=CC(=O)C[C@H]1c1ccc(F)cc1 [Compound 114, (S)-2-(4-Fluoro-phenyl)-4-oxo-3,4-dihydro-2H-pyridine-1-carboxylic acid [4-chloro-5-(3-hydroxy-propoxy)-2-methyl-phenyl]-amide]	7.74
Cn1ccc2cc(NC(=O)N3C=CC(=O)C[C@H]3c3ccc(F)cc3)ccc21 [Compound 116, (S)-2-(4-Fluoro-phenyl)-4-oxo-3,4-dihydro-2H-pyridine-1-carboxylic acid (1-methyl-1H-indol-5-yl)-amide]	7.405
O=C1C=CN(C(=O)Nc2ccc3ncsc3c2)C(c2ccc(F)cc2)C1 (centres unmarked) [Compound 117, 2-(4-Fluoro-phenyl)-4-oxo-3,4-dihydro-2H-pyridine-1-carboxylic acid benzothiazol-6-ylamide]	6.31
O=C1C=CN(C(=O)Nc2ccc(OC(F)(F)F)cc2Br)[C@H](c2ccc(F)cc2)C1 [Compound 119]	6.175
COCCN(C)Cc1cc(NC(=O)N2C=CC(=O)C[C@H]2c2ccc(F)cc2)c(C)cc1Cl [Compound 121, (S)-2-(4-Fluoro-phenyl)-4-oxo-3,4-dihydro-2H-pyridine-1-carboxylic acid (4-chloro-5-{[(2-methoxy-ethyl)-methyl-amino]-methyl}-2-methyl-phenyl)-amide]	6.43

Results, then the compound that gave them:

pIC50	SMILES
6.043	Cc1cc(NC(=O)N2C=CC(=O)CC2c2ccc(F)cc2)n(C)n1 (centres unmarked) [Compound 108, 2-(4-Fluoro-phenyl)-4-oxo-3,4-dihydro-2H-pyridine-1-carboxylic acid (2,5-dimethyl-2H-pyrazol-3-yl)-amide]
8.433	COc1cccc(NC(=O)N2C=CC(=O)CC2c2ccc(F)cc2)c1C (centres unmarked) [Compound 109, 2-(4-Fluoro-phenyl)-4-oxo-3,4-dihydro-2H-pyridine-1-carboxylic acid (3-methoxy-2-methyl-phenyl)-amide]
5.915	COc1cc(NC(=O)N2C=CC(=O)CC2c2ccc(F)cc2)c(N(C)C)cc1OC (centres unmarked) [Compound 115, 2-(4-Fluoro-phenyl)-4-oxo-3,4-dihydro-2H-pyridine-1-carboxylic acid (2-dimethylamino-4,5-dimethoxy-phenyl)-amide]
7.735	Cc1cc(Cl)c(CO)cc1NC(=O)N1C=CC(=O)C[C@H]1c1ccc(F)cc1 [Compound 118, (S)-2-(4-Fluoro-phenyl)-4-oxo-3,4-dihydro-2H-pyridine-1-carboxylic acid (4-chloro-5-hydroxymethyl-2-methyl-phenyl)-amide]
6.95	CN(C)C(=O)COc1cc(NC(=O)N2C=CC(=O)C[C@H]2c2ccc(F)cc2)c(Br)cc1Cl [Compound 120, (S)-2-(4-Fluoro-phenyl)-4-oxo-3,4-dihydro-2H-pyridine-1-carboxylic acid (2-bromo-4-chloro-5-dimethylcarbamoylmethoxy-phenyl)-amide]
